# Tests used:
# [1] = ABTS assay, cell-free in vitro test of antioxidant capacity; assay type: biochemical; design: Mean antioxidant capacity (AOX): unit not given here; details: for IC50: ABTS decoloration at 734 nm, read-out: IC50 (antioxidant concentration in which 50% of the cationic radicals are reduced); for IC50 / Mean antioxidant capacity (AOX): mean of two independent tests
# Text: In order to check to what extent L-menthyl-N-(2-hydroxyphenyl)carbamate also has antioxidant potential, the substance was investigated with the aid of the ABTS assay.
# The ABTS assay is a cell-free in vitro test for evaluating the antioxidant capacity (literature: Re R, Pellegrini N, Proteggente A, Pannala A, Yang M, Rice-Evans C. 1999. “Antioxidant activity applying an improved ABTS radical cation decolorization assay”; Free Radic. Bio. Med. 26: 1231-7). The assay uses the inherent color of a solution produced with the cationic radical 2,2′-azinobis(3-ethylbenzothiazoline 6-sulfonic acid) (ABTS+) and potassium persulfate, which solution is decolored by the addition of antioxidants (reduction of the cationic radical). This decoloration can be measured photometrically at 734 nm.
# The test is carried out in 96-well microtiter plates. The antioxidant capacity is expressed in IC50 values (antioxidant concentration in which 50% of the cationic radicals are reduced). All the ABTS test results result from two independent tests and are shown as mean values with associated mean value deviation.
# [2] = system: Corynebacterium xerosis; assay: MIC determination, series dilution test (microtiter plate) / agar dilution method; assay type: cell-based
# Procedure: (§1) The evidence of the antimicrobial action against body perspiration odor bacteria of the substances synthesized according to the examples was implemented with the aid of the agar dilution method according to DIN 58 940/ICS and DIN 58 944/ICS. Petri dishes of 5.5 cm in diameter were filled with 8.7 ml freshly produced Mueller-Hinton-agar or Wilkins-Chalgren-agar bouillon kept liquid at 50° C., supplemented with 10 g agar-agar/liter) to which the various concentrations of the thinned samples were added in 3.3% by volume=0.3 ml.
# (§2) 2.6 ml of the 3.3% samples were diluted with ethanol (96%). By continuous 2:1 dilution with ethanol (96%) the further test concentrations of the respective series of dilution, which were placed in the form of geometric rows, were produced.
# (§3) By further dilution with the test agar (0.3 ml sample or corresponding dilutions+8.7 ml agar), 30 times lower end concentrations were achieved (corresponds to a starting concentration of 1,100 ppm in each case). The concentrations disclosed below relate to the pure substance and are converted into ppm. […]
# (§4) All the test germ suspensions were diluted again with sterile bouillon 1:10 and the germ count thereof determined in the surface method per spiralometer (results: see Table 1).
# (§5) The lowest active ingredient concentration was regarded as the MIC (minimal inhibition concentration), at which no growth is macroscopically present. Minimal, hardly visible growth or a few small individual colonies were evaluated as inhibition.
# (§6) The minimum inhibition concentration (MIC) of the compound according to the invention, was determined against various cosmetically relevant germs in the series dilution test (H. Brandis, G. Pulverer: Lehrbuch der Medizinischen Mikrobiologie, 6th revised edition, Gustav Fischer Verlag Stuttgart, 1988; page 200 et seq.). The test was transferred to the microtiter plate format and the concentration was determined as the MIC value, in which after 16 hours of incubation, at the wavelength of 620 nm, no significant rise in the clouding was observed relative to the controls.
# [3] = system: Staphylococcus aureus; assay: as above; assay type: cell-based; details: ATCC6538; Staphylococcus aureus ATCC 6538; 16 hours incubation, clouding at 620 nm
# Procedure: as §1, §2, §3, §4, §5, §6
# [4] = system: Aspergillus niger; assay: as above; assay type: cell-based
# Procedure: as §1
# 2.6 ml of the 3.3% samples were diluted with ethanol (96%). […]
# as §4, §5
# The minimum inhibition concentration (MIC) of the compound according to the invention, was determined against various cosmetically relevant germs in the series dilution test (H. Brandis, G. Pulverer: Lehrbuch der Medizinischen Mikrobiologie, 6th revised edition, Gustav Fischer Verlag Stuttgart, 1988; page 200 et seq.). […]
IC50 [1],"MIC ([2]; ATCC7711, Corynebacterium xerosis ATCC 7711, 16 hours incubation, clouding at 620 nm)",MIC [3],"MIC ([4]; ATCC16404, Aspergillus niger ATCC 16404, 16 hours incubation, clouding at 620 nm)",SMILES,antioxidant capacity compared with reference alpha-tocopherol (in words) ([1]; ABTS investigations),Mean antioxidant capacity (AOX) ([1]; concentration 0.001 mM),Mean antioxidant capacity (AOX) ([1]; concentration 0.0025 mM),Mean antioxidant capacity (AOX) ([1]; concentration 0.005 mM),Mean antioxidant capacity (AOX) ([1]; concentration 0.025 mM),Mean antioxidant capacity (AOX) ([1]; concentration 0.05 mM),"inhibition of the growth (in words) ([2]; gram-positive bacteria such as corynebacterium xerosis, very small concentrations)",activity relative to mould fungi (in words) ([4]; mould fungi such as Aspergillus niger)
19 µM,8 µg/mL,8 µg/mL,> 1000 µg/mL,CC(C)[C@@H]1CC[C@@H](C)C[C@H]1OC(=O)Nc1ccccc1O [L-menthyl-N-(2-hydroxyphenyl)carbamate],comparable with the antioxidant capacity of the reference substance alpha-tocopherol,3.58,8.84,17.50,63.15,96.56,clear inhibition of the growth,inactive
25 µM,–,–,–,"Cc1c(C)c2c(c(C)c1O)CC[C@@](C)(CCC[C@H](C)CCC[C@H](C)CCCC(C)C)O2 [alpha-tocopherol, reference compound]",–,0.56,4.16,10.83,51.38,94.88,–,–

# Source: patent publication US8911715B2, “L-menthyl-N-(2-hydroxyphenyl)carbamate” (Symrise AG, priority 2008, dated 2014)
